From ChEMBL document CHEMBL1127891, “Benzopyran potassium channel activators related to cromakalim - heterocyclic amide replacements at position 4” (1994)

How the values were obtained:
Assay type in all cases: functional
Rattus norvegicus [1] = assay: Tested for antihypertensive activity expressed as max fall in BP in spontaneously hypertensive rats (SHR), at the dose of 0.3 mg/kg
Rattus norvegicus [2] = assay: Tested for antihypertensive activity expressed as max fall in BP in spontaneously hypertensive rats (SHR), at the dose of 1 mg/kg
Rattus norvegicus [3] = assay: Tested for antihypertensive activity expressed as max fall in BP in spontaneously hypertensive rats (SHR), at the dose of 0.1 mg/kg
Rattus norvegicus [4] = assay: Tested for antihypertensive activity expressed as max fall in BP in spontaneously hypertensive rats (SHR), at the dose of 3.0 mg/kg
Rattus norvegicus [5] = assay: Tested for antihypertensive activity expressed as max fall in BP in spontaneously hypertensive rats (SHR), at the dose of 10.0 mg/kg

Cn1ncnc1N[C@@H]1c2cc(C#N)ccc2OC(C)(C)[C@H]1O
Max fall in blood pressure (Rattus norvegicus [1]): 22 | Max fall in blood pressure (Rattus norvegicus [2]): 35

Cn1nc(N)nc1N[C@@H]1c2cc(C#N)ccc2OC(C)(C)[C@H]1O
Max fall in blood pressure (Rattus norvegicus [3]): 30 | Max fall in blood pressure (Rattus norvegicus [1]): 56

CC1(C)Oc2ccc(C#N)cc2[C@@H](Nc2nc(N)no2)[C@@H]1O
Max fall in blood pressure (Rattus norvegicus [4]): 32 | Max fall in blood pressure (Rattus norvegicus [2]): 16

CC1(C)Oc2ccc(C#N)cc2[C@@H](N2CCCC2=O)[C@@H]1O [CROMAKALIM]
Max fall in blood pressure (Rattus norvegicus [3]): 13 | Max fall in blood pressure (Rattus norvegicus [1]): 39 | Max fall in blood pressure (Rattus norvegicus [2]): 47

CC1(C)Oc2ccc(C#N)cc2[C@@H](Nc2n[s+]([O-])nc2N)[C@@H]1O (some centres not stated)
Max fall in blood pressure (Rattus norvegicus [4]): 20

Cc1noc(N[C@@H]2c3cc(C#N)ccc3OC(C)(C)[C@H]2O)n1
Max fall in blood pressure (Rattus norvegicus [4]): 31

Cc1nc(N[C@@H]2c3cc(C#N)ccc3OC(C)(C)[C@H]2O)n(C)n1
Max fall in blood pressure (Rattus norvegicus [4]): 37 | Max fall in blood pressure (Rattus norvegicus [2]): 22

Cn1nc(N[C@@H]2c3cc(C#N)ccc3OC(C)(C)[C@H]2O)nc1N
Max fall in blood pressure (Rattus norvegicus [5]): 33

CC1(C)Oc2ccc(C#N)cc2[C@@H](Nc2n[nH]c(N)n2)[C@@H]1O
Max fall in blood pressure (Rattus norvegicus [4]): 19

C/N=C(\NC#N)N[C@@H]1c2cc(C#N)ccc2OC(C)(C)[C@H]1O
Max fall in blood pressure (Rattus norvegicus [1]): 16 | Max fall in blood pressure (Rattus norvegicus [2]): 41
